According to patent publication US20240400560A1, “BICYCLIC HETEROCYCLIC DERIVATIVE HAVING VIRAL GROWTH INHIBITORY ACTIVITY AND PHARMACEUTICAL COMPOSITION CONTAINING SAME” (Shionogi & Co., Ltd., priority 2021, published 2024):

Tests used:
SARS-CoV-2 3CL protease = SARS-CoV-2 3CL protease (Severe acute respiratory syndrome coronavirus 2, UniProt P0DTD1); experiment: Inhibitory activity test against SARS-CoV-2 3CL proteases; type: biochemical; details: read-out: IC50 (50% SARS-CoV-2 3CL protease inhibitory concentration)
SARS-CoV-2 = experiment: Inhibitory activity of cytopathic effect (CPE) in Vero E6/TMPRSS2 cells; type: cell-based
[1] = Severe acute respiratory syndrome coronavirus 2, VeroE6/TMPRSS2, 50% SARS-CoV-2 infected cell death inhibitory concentration, class symbols
[2] = Severe acute respiratory syndrome coronavirus 2, VeroE6/TMPRSS2, 72 h, 50% SARS-CoV-2 infected cell death inhibitory concentration, CellTiter-Glo 2.0 after 3 days culture

Row | SMILES | IC50 (SARS-CoV-2 3CL protease) [nM] | EC50 (SARS-CoV-2; [1]) [nM] | EC50 (SARS-CoV-2; [2]) [nM]
1 | COc1cc(-c2cc(C(=O)N(C)C)ccc2Cl)cc2c1c(=O)n(-c1cncc(C)c1)c(=O)n2Cc1ccc(F)c(C#N)c1 [Compound I-0200] | < 100 | 1000 to 10000 | 
2 | COc1cc(-c2cc(C(N)=O)ccc2Cl)cc2c1c(=O)n(Cc1ncn(C)n1)c(=O)n2Cc1cc(F)c(F)c(F)c1 [Compound I-0034] | < 100 | 1000 to 10000 | 
3 | Cc1cncc(-n2c(=O)c3c(Cl)cc(-c4cc(C(N)=O)ccc4Cl)cc3n(Cc3cc(F)c(F)c(F)c3)c2=O)c1 [Compound I-0007] | 19 |  | 1140
4 | COCc1ccc(Cl)c(-c2cc(OC)c3c(=O)n(-c4cncc(C)c4)c(=O)n(Cc4ccc(F)c(C#N)c4)c3c2)c1 [Compound I-0076] | 20 |  | 489
5 | CNC(=O)c1ccc(Cl)c(-c2ccc3c(=O)n(Cc4ccc[nH]c4=O)c(=O)n(Cc4cc(F)c(F)c(F)c4)c3c2)c1 [Compound I-0285] | < 100 | 1000 to 10000 | 
6 | COc1cc(-c2cc3c(cc2Cl)NC(=O)C3)cc2c1c(=O)n(-c1cncc(Cl)c1)c(=O)n2Cc1cc(F)c(F)c(F)c1 [Compound I-0065] | < 100 | < 1000 | 
7 | COc1cc(-c2cc(C(=O)NCCN(C)C)ccc2Cl)cc2c1c(=O)n(-c1cncc(C)c1)c(=O)n2Cc1ccc(F)c(C#N)c1 [Compound I-0190] | < 100 | 1000 to 10000 | 
8 | COc1cc(-c2cc(C#N)ccc2Cl)cc2c1c(=O)n(-c1cncc(C)c1)c(=O)n2Cc1ccc(F)c(C#N)c1 [Compound I-0027] | < 100 | < 1000 | 
9 | COc1cc(-c2cc3cn[nH]c3cc2Cl)cc2c1c(=O)n(-c1cncc(C)c1)c(=O)n2Cc1cc(C#N)c(F)cc1C [Compound I-0163] | 1.1 |  | 273
10 | Cn1cnc(Cn2c(=O)c3c(Cl)cc(-c4cc5c(cc4Cl)NC(=O)C5)cc3n(Cc3cc(F)c(F)c(F)c3)c2=O)n1 [Compound I-0003] | 8.6 |  | 692
11 | COc1cc(-c2cc(C(=O)NCCO)ccc2Cl)cc2c1c(=O)n(-c1cncc(C)c1)c(=O)n2Cc1ccc(F)c(C#N)c1 [Compound I-0194] | < 100 | 1000 to 10000 | 
12 | COc1cc(-c2cc(C#N)ccc2Cl)cc2c1c(=O)n(-c1cncc(C)c1)c(=O)n2Cc1cc(C#N)c(F)cc1C [Compound I-0164] | 1.2 |  | 80
13 | COc1cc(-c2cc3c(cc2Cl)NC(=O)C3)cc2c1c(=O)n(Cc1ncn(C)n1)c(=O)n2Cc1cc(F)c(F)c(Cl)c1 [Compound I-0263] | 0.99 |  | 736
14 | Cc1cncc(-n2c(=O)c3c(F)cc(-c4cc(C#N)ccc4Cl)cc3n(Cc3cc(F)c(F)c(F)c3)c2=O)c1 [Compound I-0049] | < 100 | < 1000 | 
15 | COc1cc(-c2cc3cn[nH]c3cc2Cl)cc2c1c(=O)n(-c1cncc(C)c1)c(=O)n2Cc1ccc(F)c(C#N)c1 [Compound I-0063] | < 100 | < 1000 | 
16 | COc1cc(-c2cc3c(cc2Cl)NC(=O)C3)cc2c1c(=O)n(Cc1ncn(C)n1)c(=O)n2Cc1cc(F)c(F)c(F)c1 [Compound I-0139] | 4.5 |  | 3620
17 | COc1cc(-c2cc3c(cc2Cl)NC(=O)C3)cc2c1c(=O)n(-c1cncc(Cl)c1)c(=O)n2Cc1ccc(F)c(C#N)c1 [Compound I-0028] | 7.5 |  | 10100
18 | COc1cc(-c2cc(C(=O)N3CCN(C)CC3)ccc2Cl)cc2c1c(=O)n(-c1cncc(C)c1)c(=O)n2Cc1ccc(F)c(C#N)c1 [Compound I-0208] | < 100 | 1000 to 10000 | 
19 | COc1cc(-c2cc3cn[nH]c3cc2Cl)cc2c1c(=O)n(Cc1ncn(C)n1)c(=O)n2Cc1cc(F)c(F)c(Cl)c1 [Compound I-0264] | 2.6 |  | 349
20 | Cc1cncc(-n2c(=O)c3c(F)cc(-c4cc(C(N)=O)ccc4Cl)cc3n(Cc3cc(F)c(F)cc3F)c2=O)c1 [Compound I-0055] | < 100 | < 1000 | 
21 | Cc1cncc(-n2c(=O)c3c(Cl)cc(-c4cc(C(N)=O)ccc4Cl)cc3n(Cc3ccc(F)c(C#N)c3)c2=O)c1 [Compound I-0010] | < 100 | 1000 to 10000 | 
22 | Cn1cnc(Cn2c(=O)c3c(Cl)cc(-c4cc5cn[nH]c5cc4Cl)cc3n(Cc3cc(F)c(F)c(F)c3)c2=O)n1 [Compound I-0015] | < 100 | < 1000 | 
23 | COc1cc(-c2cc3c(cc2Cl)NC(=O)C3)cc2c1c(=O)n(Cc1ncn(C)n1)c(=O)n2Cc1cc(F)c(F)c(F)c1F [Compound I-0047] | < 100 | 1000 to 10000 | 
24 | COCCNC(=O)c1ccc(Cl)c(-c2cc(OC)c3c(=O)n(-c4cncc(C)c4)c(=O)n(Cc4ccc(F)c(C#N)c4)c3c2)c1 [Compound I-0195] | < 100 | 1000 to 10000 | 
